Source: ChEMBL document CHEMBL1201862, “PubChem BioAssay data set” (2004)
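Protocol summary: plate cells (96-well), add compound at 5 concentrations, incubate 48 h, interpolate endpoints linearly. GI50 marks 50% less growth.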 Calls of active or inactive are those of the source. No stated cut-off is given here; in the data, active = GI50 up to about 1.1 µM and inactive = higher.

How the values were obtained:
Experiment in all cases: inhibition of tumour cell growth, NCI panel, 48 h
COLO 205 = test system: COLO 205
SK-OV-3 = test system: SK-OV-3
HOP-62 = test system: HOP-62
M14 = test system: M14
SW-620 = test system: SW-620
OVCAR-8 = test system: OVCAR-8
Malme-3M = test system: Malme-3M
SF-295 = test system: SF-295
SK-MEL-28 = test system: SK-MEL-28
HL-60 = test system: HL-60
SF-268 = test system: SF-268
UO-31 = test system: UO-31
IGROV-1 = test system: IGROV-1
HCT-116 = test system: HCT-116
SN12C = test system: SN12C
MOLT-4 = test system: MOLT-4
HOP-92 = test system: HOP-92
U-251 = test system: U-251
SF-539 = test system: SF-539

Measured: GI50

NC1=NC(NCC2(CO)CCC2)=CC(OCC2(CO)CCC2)N1 (stereo not given)
inactive: COLO 205 > 100 µM | SK-OV-3 > 100 µM | HOP-62 > 100 µM | M14 > 100 µM | SW-620 > 100 µM | OVCAR-8 > 100 µM | Malme-3M > 100 µM | SF-295 > 100 µM | SK-MEL-28 > 100 µM | HL-60 78.2 µM | SF-268 > 100 µM | UO-31 > 100 µM | IGROV-1 > 100 µM | HCT-116 > 100 µM | SN12C > 100 µM | MOLT-4 65.9 µM | HOP-92 > 100 µM | U-251 > 100 µM

N=C(N)N/N=C/c1nc2sccn2c1[N+](=O)[O-]
inactive: COLO 205 16.2 µM | SK-OV-3 52.5 µM | HOP-62 37.8 µM | SF-539 36.8 µM | M14 22.6 µM | SW-620 29.4 µM | OVCAR-8 34 µM | Malme-3M 13.3 µM | SF-295 33.3 µM | SK-MEL-28 > 100 µM | HL-60 6.58 µM | SF-268 33.3 µM | UO-31 65.3 µM | IGROV-1 60.4 µM | HCT-116 22.4 µM | SN12C 37.5 µM | HOP-92 68.9 µM | U-251 28.6 µM

Cc1cccc(CNNC(=O)c2cc[n+]([BH2-]C#N)cc2)c1
inactive: COLO 205 16.5 µM | SK-OV-3 43.6 µM | HOP-62 38 µM | M14 37.9 µM | SW-620 34 µM | OVCAR-8 24.6 µM | Malme-3M 15 µM | SF-295 36.1 µM | SK-MEL-28 6.67 µM | HL-60 22.5 µM | SF-268 26.7 µM | UO-31 48.1 µM | IGROV-1 22 µM | HCT-116 23.3 µM | MOLT-4 28.2 µM | HOP-92 4.47 µM | U-251 39.5 µM

N/C(=N\c1ccc(Cl)cc1)NS(=O)(=O)c1cc(Cl)c(Oc2ccc([N+](=O)[O-])cc2Cl)c(Cl)c1
inactive: COLO 205 16.1 µM | SK-OV-3 17.4 µM | SF-539 16.6 µM | M14 18.6 µM | SW-620 20 µM | OVCAR-8 16.6 µM | Malme-3M > 100 µM | SF-295 17.4 µM | SK-MEL-28 16.9 µM | HL-60 16.7 µM | SF-268 > 100 µM | UO-31 18.8 µM | IGROV-1 15.8 µM | HCT-116 16.7 µM | SN12C 17.5 µM | MOLT-4 14.8 µM | HOP-92 17.2 µM | U-251 14.8 µM

C=C[C@H]1CC[C@H]2[C@@H]3CC=C4C[C@@H](OC5OCC(O)C(O)C5O)CC[C@]4(C)[C@H]3CC[C@]12C (stereo not given in full)
inactive: COLO 205 21.7 µM | SK-OV-3 12.9 µM | HOP-62 18 µM | SF-539 14.9 µM | M14 16.1 µM | SW-620 17.7 µM | OVCAR-8 16.3 µM | SF-295 15.2 µM | HL-60 29.7 µM | SF-268 13.8 µM | UO-31 13.3 µM | IGROV-1 10 µM | HCT-116 13.7 µM | SN12C 15.7 µM | MOLT-4 46.6 µM | HOP-92 1.97 µM | U-251 14.9 µM

COc1ccccc1C1c2cc3c(cc2OC(N2CCCC2)C1C)OCO3 (stereo not given)
inactive: COLO 205 18 µM | HOP-62 15.1 µM | SF-539 14.9 µM | M14 13.7 µM | SW-620 18 µM | OVCAR-8 21.2 µM | Malme-3M 18.4 µM | SF-295 16.7 µM | SK-MEL-28 20.4 µM | HL-60 14.2 µM | SF-268 13.6 µM | UO-31 10.4 µM | IGROV-1 19.3 µM | HCT-116 14.8 µM | SN12C 17.1 µM | MOLT-4 3.16 µM | HOP-92 3.08 µM | U-251 18.8 µM

O=[N+]([O-])c1cn[n+]([O-])c2ccccc12
inactive: COLO 205 13.2 µM | SK-OV-3 13.2 µM | HOP-62 12.9 µM | SF-539 10.4 µM | M14 2.87 µM | SW-620 1.98 µM | OVCAR-8 2.18 µM | Malme-3M 15.4 µM | SF-295 4.75 µM | SK-MEL-28 10.4 µM | HL-60 1.17 µM | SF-268 4.59 µM | HCT-116 1.24 µM | SN12C 8.83 µM | MOLT-4 1.71 µM | HOP-92 12.7 µM | U-251 4.19 µM

CC(C)OC(=O)C1=C2c3ncccc3C(=O)N2[C@@H](Cl)[C@@H](Cl)[C@@H]1Cl
inactive: COLO 205 > 100 µM | HOP-62 > 100 µM | SF-539 > 100 µM | M14 > 100 µM | SW-620 34.9 µM | OVCAR-8 39.8 µM | Malme-3M > 100 µM | SF-295 > 100 µM | SK-MEL-28 > 100 µM | HL-60 25.8 µM | SF-268 82.2 µM | UO-31 > 100 µM | IGROV-1 96.4 µM | HCT-116 > 100 µM | SN12C 21.2 µM | MOLT-4 31.8 µM | HOP-92 > 100 µM | U-251 > 100 µM

O=C(/C=C/c1ccccc1Br)c1ccccc1
inactive: COLO 205 14.5 µM | SK-OV-3 16.9 µM | HOP-62 13.4 µM | SF-539 4.1 µM | M14 6.61 µM | SW-620 1.58 µM | OVCAR-8 2.63 µM | SF-295 11.3 µM | SK-MEL-28 3.69 µM | HL-60 1.35 µM | SF-268 3.58 µM | UO-31 5.55 µM | IGROV-1 2.99 µM | HCT-116 1.89 µM | SN12C 9.84 µM | MOLT-4 2.84 µM | HOP-92 16.7 µM | U-251 1.56 µM

Cc1cc(C)c2nc3c(c(C(O)C4CCCCN4)c2c1)CC/C3=C\c1ccc(Cl)cc1 (stereo not given)
inactive: COLO 205 41 µM | SK-OV-3 74.3 µM | HOP-62 75.9 µM | SF-539 > 100 µM | M14 75.9 µM | SW-620 55.3 µM | OVCAR-8 58.6 µM | Malme-3M > 100 µM | SF-295 73.1 µM | SK-MEL-28 > 100 µM | HL-60 10.7 µM | SF-268 > 100 µM | IGROV-1 84.1 µM | HCT-116 32 µM | SN12C 38.1 µM | MOLT-4 26.7 µM | HOP-92 > 100 µM | U-251 60.4 µM

c1ccc(/N=C(/Nc2ccccc2)N2CCCC2)cc1
inactive: COLO 205 > 100 µM | SK-OV-3 > 100 µM | HOP-62 > 100 µM | M14 > 100 µM | SW-620 > 100 µM | OVCAR-8 > 100 µM | Malme-3M > 100 µM | SF-295 > 100 µM | SK-MEL-28 > 100 µM | HL-60 > 100 µM | SF-268 > 100 µM | UO-31 > 100 µM | IGROV-1 > 100 µM | HCT-116 > 100 µM | SN12C > 100 µM | MOLT-4 > 100 µM | HOP-92 > 100 µM | U-251 > 100 µM
